Experiment [1] deals with T1, Organic anion transporter 3 (Homo sapiens, UniProt Q8TCC7).
T1 sequence (Q8TCC7 whole entry): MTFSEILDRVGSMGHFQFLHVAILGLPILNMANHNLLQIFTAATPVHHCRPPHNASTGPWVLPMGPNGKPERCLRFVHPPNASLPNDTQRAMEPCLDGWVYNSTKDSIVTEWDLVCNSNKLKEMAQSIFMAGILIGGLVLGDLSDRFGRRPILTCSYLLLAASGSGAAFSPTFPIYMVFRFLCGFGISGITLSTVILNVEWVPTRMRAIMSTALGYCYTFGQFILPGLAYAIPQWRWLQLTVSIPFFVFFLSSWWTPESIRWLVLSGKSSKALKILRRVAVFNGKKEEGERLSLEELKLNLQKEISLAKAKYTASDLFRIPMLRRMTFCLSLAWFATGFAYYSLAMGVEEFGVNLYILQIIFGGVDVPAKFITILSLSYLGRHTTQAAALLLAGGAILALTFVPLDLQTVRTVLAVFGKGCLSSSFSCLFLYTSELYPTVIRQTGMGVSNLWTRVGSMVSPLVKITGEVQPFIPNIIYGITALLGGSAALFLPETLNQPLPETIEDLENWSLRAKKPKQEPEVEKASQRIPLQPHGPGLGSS
The experiment can be described thus: TP_TRANSPORTER: inhibition of Estrone sulfate uptake in OAT3-expressing S2 cells. It is filed as functional, cell-based.

In experiment [2] the target is T2, Solute carrier family 22 member 11 (Homo sapiens, UniProt Q9NSA0).
T2 sequence (Q9NSA0 whole entry): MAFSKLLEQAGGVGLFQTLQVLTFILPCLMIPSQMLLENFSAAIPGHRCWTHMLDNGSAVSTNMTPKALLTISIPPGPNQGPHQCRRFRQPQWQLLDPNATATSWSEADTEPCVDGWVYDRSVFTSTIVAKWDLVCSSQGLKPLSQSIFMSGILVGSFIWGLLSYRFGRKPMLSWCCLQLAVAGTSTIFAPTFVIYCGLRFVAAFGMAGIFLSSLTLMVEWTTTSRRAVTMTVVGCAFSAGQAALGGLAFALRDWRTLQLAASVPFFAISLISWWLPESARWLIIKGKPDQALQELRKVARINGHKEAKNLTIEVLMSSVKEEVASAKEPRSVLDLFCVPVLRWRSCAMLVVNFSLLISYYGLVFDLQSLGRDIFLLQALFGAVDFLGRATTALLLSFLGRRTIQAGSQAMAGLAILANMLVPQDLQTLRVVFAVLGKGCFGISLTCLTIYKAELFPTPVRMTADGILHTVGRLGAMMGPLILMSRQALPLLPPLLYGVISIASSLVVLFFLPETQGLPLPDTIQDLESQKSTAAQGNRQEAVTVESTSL
The experiment can be described thus: TP_TRANSPORTER: inhibition of Estrone sulfate uptake in OAT4-expressing S2 cells. It is filed as functional, cell-based.

Usually Ki stands for a measure of affinity in units of concentration, obtained from inhibition or displacement. Low values mean a stronger hold on the target, high ones a looser hold on the target. Regarding `Cn1nnnc1SCC1=C(C(=O)O)N2C(=O)[C@@H](NC(=O)[C@H](O)c3ccccc3)[C@H]2SC1` [CEFAMANDOLE], the affinity in experiment [1] corresponds to a Ki of 46 µM.
Still for that read-out and setting: with `CO/N=C(\C(=O)N[C@@H]1C(=O)N2C(C(=O)O)=C(COC(C)=O)CS[C@H]12)c1csc(N)n1` [CEFOTAXIME] the figure was 290 µM.
As to `CC(=O)OCC1=C(C(=O)O)N2C(=O)[C@@H](NC(=O)Cc3cccs3)[C@H]2SC1` [CEPHALOTHIN], the Ki in experiment [1] was 40 µM; in experiment [2], 200 µM.
For `Cc1nnc(SCC2=C(C(=O)O)N3C(=O)[C@@H](NC(=O)Cn4cnnn4)[C@H]3SC2)s1` [CEFAZOLIN], the affinity in experiment [1], expressed as Ki, was 550 µM.

The record behind these values is ChEMBL document CHEMBL2074220, “Interaction of human organic anion transporters with various cephalosporin antibiotics” (Eur J Pharmacol, 2002).
